Experimental data published in patent publication US11771661B2, “Method of treating post-traumatic stress disorder” (ICAHN SCHOOL OF MEDICINE AT MOUNT SINAI, priority 2013, dated 2023).
“And” between values parts separate entries of the source, which are not always exact repeats. Equal entries are not always repeated.

Key:
[1] = target: NMDA receptors; conditions: read-out: Ki, binding to NMDA receptors; cited from earlier work
[2] = test system: intractable central neuropathic pain; conditions: in vivo; cited from earlier work
[3] = Side effects of IV administration of ketamine; assay type: in vivo, human
Protocol: IV administration of ketamine can be on an as needed basis, e.g., when symptoms of PTSD appear. For IV administration, ketamine (e.g., doses of at least 0.5 mg/kg) may be administered over a period of 40 minutes. IV administration may be continued for up to 1 week, or longer. IV administration of ketamine may also be effected at least twice, at least three times, at least four times, at least five time, at least six times, at least seven times per week, and may be continued over a period of two, three, four, five, six, seven, eight, nine or 10 weeks, or more. […] Any side effects observed are typically mild, e.g., euphoria, elevated BP, increased libido, perceptual disturbances, and furthermore these effects typically abate within 80 minutes post-infusion.

[4] = test system: patients with treatment resistant depression (TRD), co-morbid current PTSD; assay: Example 1: open-label ketamine infusion in treatment resistant depression patients, case studies with co-morbid PTSD; assay type: in vivo, human; conditions: for IES score: baseline 48
Protocol: In a ketamine infusion study in patients with treatment resistant depression (TRD), ketamine (0.5 mg/kg IV) was administered open-label and combined with pre-infusion treatment with a single oral dose of lamotrigine (300 mg) or placebo administered under double-blind conditions. Preliminary analyses were recently performed on a sample of 16 patients. […] A strong positive correlation between individual childhood trauma (abuse and/or neglect) and the antidepressant response (MADRS: r=0.55, p=0.03; QIDS-SR: r=0.59, p=0.02).
The effect of ketamine on Hamilton Anxiety Rating Scale (HAM-A) scores was also measured. A strong positive correlation between the magnitude of the ketamine-induced reduction in HAM-A scores and personal history of childhood trauma measured using the Childhood Trauma Questionnaire (CTQ; n=15, r=0.59, p=0.02) was observed. […] Patient A, suffered from distressing intrusive memories, nightmares, flashbacks, hypervigilance, poor concentration, and depressed mood. Patient A described their PTSD and MDD symptoms as chronic, but having intensified over time, due to ongoing events in their life.
After observing the magnitude of the therapeutic effect of ketamine in Patient A, TRD patients with a co-morbid current PTSD diagnosis were administered the Clinician-Administered PTSD Scale (CAPS) and the Impact of Events Scale (IES) before and after ketamine infusion. […] The day after ketamine infusion, Patient M reported that they felt an “intellectual distance” from the emotional content of prior traumatic events that allowed them to feel more in control. Patient M further described feeling relieved of a compulsion to continuously analyze their past, identify ways in which they might have circumvented trauma, and subsequently punish themself for their failure to avoid trauma. One week post-infusion, Patient M's CAPS score had dropped by 90% and could be considered a remission (defined as CAPS<20). Two weeks post-infusion, Patient M maintained their “intellectual distance” from the emotional content associated with their trauma.

[5] = test system: patients with chronic PTSD; assay: Example 2: randomized, double-blind, midazolam-controlled crossover trial of IV ketamine, symptom ratings; assay type: in vivo, human
Description: Patients with chronic PTSD were enrolled in a controlled study. […] Exclusion criteria included lifetime history of psychotic or bipolar disorder, current bulimia or anorexia nervosa, alcohol abuse or dependence in the previous three months, serious unstable medical illness or sleep apnea, active suicidal or homicidal ideation on presentation, or current use of any psychotropic medications. All patients underwent a physical examination and laboratory screening including routine hematologic, biochemical and urine toxicology testing, as well as an electrocardiogram to rule out unstable medical illness and active substance use. To receive the second IV infusion, a CAPS score of at least 50 was required prior to the second infusion. The Institutional Review Board at Mount Sinai approved the study, and informed consent was obtained from all study participants.
Study participants were free of concomitant psychotropic medications for two weeks prior to randomization and for the duration of the study. For each procedure day, patients were assigned to receive a single IV infusion of ketamine hydrochloride (0.5 mg/kg) or midazolam (0.045 mg/kg), administered over 40 minutes. Order of infusions (ketamine-midazolam or midazolam-ketamine) was randomly assigned and administrations were two weeks apart. […] Only the research pharmacy was aware of drug identity, and all study personnel, including investigators, anesthesiologists, raters, patients and data analysts were blinded to randomization order.
Following admission and an overnight fast, an indwelling catheter was placed in the antecubital vein of the non-dominant arm. Pulse, blood pressure, pulse-oximetry and ECG monitoring were instituted (see Murrough J et al. Antidepressant efficacy of ketamine in treatment-resistant major depression: a two-site, randomized controlled trial. The American Journal of Psychiatry. 2013 Oct. 1; 170(10):1134-42). Ratings were administered by a trained rater during the infusion and at 240 minutes after the start of the infusion. A different rater, blinded to the ratings during post-infusion on infusion, administered ratings at pre-infusion baseline, 24 hours (Day 1) post-infusion (before patients were discharged from the hospital), 48 hours (Day 2), 72 hours (Day 3), and 7 days (Day 7) post-infusion. Ratings were also administered at 10 and 13 days post-infusion, though data analyses focused on the first week post-infusion due to the expected duration of ketamine action. Patients were instructed to abstain from taking psychotropic medications and from using alcohol or substances of abuse for the duration of the trial. As described above, patients who scored ≥50 on the CAPS 2 weeks after the first infusion received an infusion of the second study drug.
The primary outcome was PTSD symptom severity at 24 hours post-infusion, assessed with the Impact of Event Scale—Revised (IES-R). Twenty-four hours post-infusion was selected as the primary endpoint, as acute sedating and other side effects were expected to have resolved, while potential symptom improvement was expected to persist at 24 hours. Secondary outcome measures included the Montgomery-Asberg Depression Rating Scale (MADRS), the Quick Inventory of Depressive Symptomatology, Self-Report (QIDS-SR), and Clinical Global Impression-Severity (CGI-S) and -Improvement (GCI-I) scales administered by a study clinician at 24 hours, 48 hours, 72 hours and 7 days post-infusion. The IES-R was also administered at 48 hours, 72 hours, and 7 days post-infusion. Additionally, the CAPS was administered 7 days post-infusion.
A mixed-model approach was employed to test effects of treatment, period, and carryover.

[6] = test system: patients with chronic PTSD; assay: Example 2: side effects (PRISE, CADSS, BPRS, YMRS item 1) after IV infusion; assay type: in vivo, human
Protocol: General side effects and possible dissociative, psychotomimetic, and manic symptoms were measured with the Patient-Rated Inventory of Side Effects (PRISE), Clinician-Administered Dissociative States Scale (CADSS), Brief Psychiatric Rating Scale (BPRS) and Young Mania Rating Scale (YMRS) item 1 (elevated mood), respectively.
Secondary analyses also examined the effect of depression on PTSD symptoms and the interaction between treatment and depression. A mixed model approach was used to examine the effects of treatment, baseline MADRS score, and 24-hour MADRS score using only first-period data. Safety and tolerability were analyzed using descriptive statistics.

[7] = test system: treatment-resistant major depression; conditions: 0.5 mg/kg intravenous infusion over 40 minutes; cited from earlier work
[8] = IN vs IV; cited from earlier work
[9] = test system: breakthrough pain (BTP); conditions: cited from earlier work
[10] = cited from earlier work
[11] = 0.5 mg/kg IV open-label, 16 TRD patients
[12] = by treatment group (drug given first)
[13] = individual responder patients, after first infusion
[14] = ketamine vs midazolam, cross-over 24 hours, n = 29
[15] = ketamine vs midazolam, first infusion 24 hours, n = 41
[16] = response = 50% improvement in IES-R score at 24 hours post-infusion

## CN[C@]1(c2ccccc2Cl)CCCCC1=O [S(+)-ketamine]
[1]
  Ki: 3.2 µM
[2]
  potency compared with racemic mixture of ketamine: two times more potent

## CNC1(c2ccccc2Cl)CCCCC1=O (centres unmarked) [ketamine, 2-(2-chlorophenyl)-2-(methylamino)-cyclohexanone]
[3]
  serious adverse events caused by IV administration: No serious adverse events
  time by which mild side effects typically abate post-infusion: ≤ 80 min
[4]; [11]
  MADRS clinical depression scores, baseline to 24 hours post-infusion: reduced clinical depression scores
  self-reported mood, QIDS-SR: improved
[4]; Patient M, +1 week
  IES score: 5
[4]; Patient M, +1 week, baseline 81
  CAPS score: 8
[4]; Patient M, +2 weeks
  IES score: 15
[4]; Patient M, +2 weeks, baseline 81
  CAPS score: 27
[4]; Patient M, +40 min post-ketamine
  IES score: 33
[4]; Patient M, +240 min
  IES score: 3
[4]; Patient M, +24 hours
  IES score: 16
[4]; Patient M, +72 hours
  IES score: 5
[4]; Patient M, one week post-infusion, baseline 81
  drop in CAPS score: 90%
[5]; 7 days post-infusion, p-value=0.20
  CAPS score, mean difference ketamine-midazolam: 8.7
[5]; at 7 days, single infusion study
  decrease in CAPS score: 27 (sd=20)
[5]; [12]
  CAPS Total (Week 1), mean: 54.00
  CAPS Total (Week 2), mean: 56.21
  CGI-I (Week 1), mean: 3.22
  CGI-I (Week 2), mean: 3.15
  IES-R Total (Week 1), mean: 25.76
  IES-R Total (Week 2), mean: 25.67
[5]; [13]
  CAPS Total (Week 1): 16 and 45 and 41 and 33 and 54 and 22 and 13
  CAPS Total (Week 2): 11 (2×) and 25 and 28 and 19 and 44 and 45
  CGI-I (Week 1): 2 (5×) and 3
  CGI-I (Week 2): 2 (3×) and 3
  IES-R Total (Day 10): 4 and 3 (3×) and 15 and 25.14 and 28
  IES-R Total (Week 1): 1 and 8.38 and 10 and 2 and 18 and 17 and 3
  IES-R Total (Week 2): 6 and 1 and 14 and 0 and 26 and 28 and 2
[5]; ketamine vs midazolam, collapsed across 24, 48, 72 hours and seven days, first period, p=0.046
  IES-R, differences of least squares means estimate: −8.32
[5]; ketamine vs midazolam, collapsed across time, first period, p=0.050
  QIDS-SR, differences of least squares means estimate: −2.73
[5]; ketamine vs midazolam, collapsed across time, first period, p=0.052
  MADRS, differences of least squares means estimate: −3.99
[5]; [14]
  CGI-I, mean difference: 1.2
  CGI-S, mean difference: 1.0
  IES-R Avoidance, mean difference: 4.8
  IES-R Hyperarousal, mean difference: 3.9
  IES-R Re-experiencing, mean difference: 4.0
  IES-R total, mean difference: 12.7
  MADRS, mean difference: 3.7
  QIDS, mean difference: 0.17
[5]; [15]
  CGI-I, mean difference: 0.80
  CGI-S, mean difference: 0.90
  IES-R Avoidance, mean difference: 3.3
  IES-R Hyperarousal, mean difference: 2.6
  IES-R Re-experiencing, mean difference: 2.6
  IES-R total, mean difference: 8.6
  MADRS, mean difference: 2.7
  QIDS, mean difference: 1.5
[5]; of all 35 patients
  IES-R_response No, Percent of total: 25.71%
  IES-R_response Yes, Percent of total: 28.57%
[5]; period-1 analysis, 41 patients, ketamine vs midazolam, p=0.0496
  β of treatment assignment on IES-R score at 24 hours post-infusion: 6.5
[5]; [16]
  IES-R_response No, Frequency: 9
  IES-R_response Yes, Frequency: 10
[5]; share of non-responders
  IES-R_response No, Row Pct: 45.00 Pct
[5]; share of responders
  IES-R_response Yes, Row Pct: 66.67 Pct
[5]; share of the treatment group
  IES-R_response No, Col Pct: 47.37 Pct
[5]; share of the treatment group, 24 hours post-infusion
  IES-R_response Yes, Col Pct (responded after infusion): 52.63%
[6]; BPRS, YMRS item 1
  psychotic or manic symptoms: No emergence of significant psychotic or manic symptoms
[6]; during infusion, systolic >180 and/or diastolic >100
  patients requiring acute beta-blocker treatment for blood pressure elevation: Three
[6]; from start of infusion
  time by which dissociative symptoms had resolved: ≤ 120 min
  time of peak of dissociative symptoms: 40 min
[6]; single dose IV
  safety and tolerability: safe and well-tolerated
[7]
  duration of improvements in depression: up to 1 week
  serious adverse events: no serious adverse events
  time to improvements in depression post-injection: ≤ 2 h
[8]
  intranasal plasma levels (pain treatment) lower than intravenous ketamine studies in depression: 3-4 fold
[9]; 10-50 mg intranasal in incremental 10 mg doses every 90 seconds
  breakthrough pain vs placebo: lower BTP
[9]; 10-50 mg intranasal
  side effects: very few side effects
[10]; in vivo
  dose at which mild adverse effects (dysphoria, hallucinations) can occur: greater than 50 mg
[10]; intranasal
  total intranasal dose usually required for mild adverse effects: greater than 100 mg
